Columns and labels:
[1] = test system: Aspergillus fumigatus ATCC204305; experiment: Broth microdilution MEC; format: cell-based; settings: CLSI broth microdilution, microscopy, duplicate
Method: (§1) Antifungal potency of the test article(s) was measured using the in vitro broth microdilution assay under test conditions described by the Clinical and Laboratory Standards Institute. Minimum Inhibitory Concentration (MIC) is defined as the lowest concentration of an agent that causes a specified reduction in visible growth of the microorganism. Minimum Effective Concentration (MEC) is defined as the lowest concentration of an agent that leads to the growth of small, rounded, compact hyphal forms, as compared to the hyphal growth typically seen in the growth control well. MIC values were determined for 9 Candida spp., and MEC values were determined for filamentous fungus species (Aspergillus fumigatus and Trichophyton rubrum). Details of the test article preparations and methodologies are described in Supplementary Material S1.
(§2) Following incubation, the test plates were visually examined and wells were scored for growth or complete growth inhibition to define the MIC values. Microscopy examination was used to determine the MEC values. Each test substance was evaluated in duplicate and the results are the duplicate test values. Vehicle-control and an active reference agent were used as blank and positive controls, respectively. […]
(§3) S1. In Vitro Testing, Test Article Preparations
(§4) The 5 mg/mL stock solution was prepared as the following. The refrigerated vial was equilibrated to room temperature. Test vial was reconstituted aseptically with 10.5 mL 0.9% NaCl. The powder was dissolved completely, mixing until a clear solution was ob-tained. The final concentration was 5.0 mg/mL of caspofungin freebase. The reconstituted solution was stable for 1 hr at room temperature. The 5 mg/mL stock solution was then […]
(§5) The refrigerated vial was equilibrated to room temperature. The powder was dis-solved completely, mixing until a clear solution was obtained. Test vial was reconstituted aseptically with 1.8 mL 0.9% NaCl. The white to off-white powder was dissolved com-pletely, mixing gently until a clear solution was obtained. The final concentration was 5.0 mg/mL of caspofungin freebase. The reconstituted solution was used within 1 hr at room temperature. The 5 mg/mL stock solution was then diluted with 0.9% NaCl to prepare the […]
(§6) 1.3. Caspofungin Diacetate
(§7) The 5 mg/mL API stock solution was prepared as the following. The refrigerated vial was equilibrated to room temperature. Test vial was filled aseptically with 1.8 mL 0.9%
(§8) NaCl. The powder was dissolved completely, mixing until a clear solution was obtained.
(§9) The final concentration was 5.0 mg/mL of caspofungin freebase. The reconstituted solu-tion was used within 1 hr at room temperature. The 5 mg/mL stock solution was then […]
(§10) g compound, corresponding to 1.2 mg active compound with a correction factor of 2.40 was added 0.375 mL of water for injection to generate the 3.2 mg/mL working stock solution for testing. The 3.2 mg/mL working stock solution was 2-fold diluted seri-ally in 0.9% NaCl to prepare a total of eleven 50-fold stock solutions, concentrations rang-ing from 3.2 to 0.003 mg/mL. A 4 μL aliquot of each dilution was added to 196 μL of broth medium seeded with the organism suspension in wells of a 96 well plate (fungal cell count: 1 x 10^3 to 1 x 10^4 colony forming units per mL). The final volume was 200 μL in each […]

[2] = test system: Trichophyton rubrum ATCC 10218; experiment: Broth microdilution MEC; format: cell-based; settings: CLSI broth microdilution, microscopy, duplicate
Method: as §1, §2, §3, §4, §5, §6, §7, §8, §9, §10

[3] = test system: Aspergillus fumigatus ATCC 13073; experiment: Broth microdilution MEC; format: cell-based; settings: CLSI broth microdilution, microscopy, duplicate
Method: as §1, §2, §3, §4, §5, §6, §7, §8, §9, §10

[4] = IV administration, lung tissue; cited from earlier work
Method: (§11) Morphologically Aspergillus grows and propagates within the lung cavity. […] This may explain low human efficacy (40%) of caspofungin in treating IPA. Drug concentr ... || Caspofungin for injection (tradename: […]®) is sold by Merck & Co., Inc. The approved […]® dose is a 70 mg loading dose and then 50 mg/daily. Previous intravenous (IV) studies with caspofungin in animals have shown that IV administered drug only delivers about 5% of the drug level in blood to the lungs. […] Most of the IV drugs is distributed to other sensitive target organs, such as the liver and kidneys, which if given in higher doses, can lead ...

[5] = Stability of lyophilized formulations by HPLC; format: physicochemical; settings: caspofungin API lyophilized alone from water, 0 months; HPLC UV 220 nm
Method: Lyophilization was accomplished using a VirTis benchtop manifold lyophilizer (SP Scientific, Stone Ridge, NY, USA) under vacuum of <50 mTorr. […] High-performance liquid chromatography (HPLC) analysis was carried out on a Waters 2695 separations module (Waters Corporation, Milford, MA, USA) equipped with an autosampler and a Waters 996 photodiode array detector. For impurity determinations a Waters Symmetry (Waters Corporation, Milford, MA, USA) C18 3.5 µm, 4.6 × 75 mm column was used. For weight-weight assay a Waters Symmetry C18 Column (Waters Corporation, Milford, MA, USA), 3.5 µm, 4.6 mm × 100 mm column was employed. […] Reconstituted stability analyses were analyzed using the above HPLC methods.
The stability of the lyophilized formulations was studied under two sets of temperature conditions, 2–5 °C and 25 °C. […] At the specified time points the test articles were reconstituted with normal saline to yield a 10 mg/mL solution for HPLC assay. For comparison, we also lyophilized caspofungin API alone.
HPLC analysis was carried out on a Waters 2695 separations module equipped with
an autosampler and a Waters 996 photodiode array detector. The HPLC method is de-
Column: Waters symmetry C18 3.5 μm, 4.6 x 75 mm
Column Temperature: 30 °C
Autosampler temperature: 4 °C
Mobile phase: A: Add 1.0 mL of perchloric acid and 0.75 g of sodium chloride in 1000
mL HPLC grade water; B: Acetonitrile. […]

[6] = test system: invasive aspergillosis patients; settings: cited from earlier work
Source text: as §11, with “Invasive Pulmonary Aspergillosis (IPA) and Pneumocystis jiroveci Pneumonia (PCP) are serious fungal pulmonary diseases for immunocompromised patients. The brand name drug […]® (Caspofungin acetate for injection) is FDA approved to treat IPA, but is only 40% effective. Efficacious drug levels at the lung infection site are not achieved by systemic administration. Increasing the dose leads to toxicity. The objective, here, is to reformulate caspofungin for aerosolization to high drug concentration by lung targeted delivery and avoid systemic distribution. Described in this paper is a new, ... || Morphologically Aspergillus” for “Morphologically Aspergillus”, “lead ... || (+ 1 further places)” for “lead ...”

[7] = test system: Candida parapsilosis ATCC 22019; experiment: microbe, parasite or virus in culture; format: cell-based; settings: CLSI broth microdilution, duplicate
Method: as §1, §2, §3, §4, §5, §6, §7, §8, §9, §10

[8] = test system: Candida tropicalis ATCC 200956; experiment: microbe, parasite or virus in culture; format: cell-based; settings: CLSI broth microdilution, duplicate
Method: as §1, §2, §3, §4, §5, §6, §7, §8, §9, §10

[9] = test system: Candida albicans ATCC44858; experiment: microbe, parasite or virus in culture; format: cell-based; settings: CLSI broth microdilution, visual, duplicate
Method: as §1, §2, §3, §4, §5, §6, §7, §8, §9, §10

Candida krusei ATCC 6258 = experiment: microbe, parasite or virus in culture; format: cell-based; settings: CLSI broth microdilution, duplicate
Method: as §1, §2, §3, §4, §5, §6, §7, §8, §9, §10

[10] = test system: Candida glabrata ATCC 36583; experiment: microbe, parasite or virus in culture; format: cell-based; settings: CLSI broth microdilution, duplicate
Method: as §1, §2, §3, §4, §5, §6, §7, §8, §9, §10

[11] = test system: Candida albicans ATCC90028; experiment: microbe, parasite or virus in culture; format: cell-based; settings: CLSI broth microdilution, visual, duplicate
Method: as §1, §2, §3, §4, §5, §6, §7, §8, §9, §10

[12] = test system: Candida albicans Azole-R (20183.073); experiment: microbe, parasite or virus in culture; format: cell-based; settings: CLSI broth microdilution, azole-resistant strain, duplicate
Method: as §1, §2, §3, §4, §5, §6, §7, §8, §9, §10

[13] = test system: Candida albicans Azole-R (20186.025); experiment: microbe, parasite or virus in culture; format: cell-based; settings: CLSI broth microdilution, azole-resistant strain, duplicate
Method: as §1, §2, §3, §4, §5, §6, §7, §8, §9, §10

[14] = test system: Candida albicans ATCC90028 + 50%human serum; experiment: microbe, parasite or virus in culture; format: cell-based; settings: CLSI broth microdilution, duplicate
Method: as §1, §2, §3, §4, §5, §6, §7, §8, §9, §10

## CC[C@H](C)C[C@H](C)CCCCCCCCC(=O)N[C@H]1C[C@@H](O)[C@@H](NCCN)NC(=O)[C@@H]2[C@@H](O)CCN2C(=O)[C@H]([C@H](O)CCN)NC(=O)[C@H]([C@H](O)[C@@H](O)c2ccc(O)cc2)NC(=O)[C@@H]2C[C@@H](O)CN2C(=O)[C@H]([C@@H](C)O)NC1=O [Caspofungin Diacetate]
[1]
  MEC: 0.125 µg/mL
[2]
  MEC: 0.125 µg/mL
[3]
  MEC: 0.0625 µg/mL
[4]
  percentage of IV delivered drug detected in lung: about 5%
[5]
  HPLC Purity %: 95.42%
[6]; IPA patients, high dose group 200 mg/day intravenously
  response rate (complete or partial response): 60%
[6]; IPA patients, standard dose group IV
  favorable response: 44%
[6]; high dose group 200 mg/day IV, elevated liver enzymes and liver failure
  patients presenting with liver toxicity: 65%
[6]; standard dose group IV
  liver enzyme abnormalities: No liver enzyme abnormalities were observed
[7]
  MIC: 1 µg/mL
[8]
  MIC: 0.25 µg/mL
[9]
  MIC: 0.25 µg/mL
Candida krusei ATCC 6258
  MIC: 1 µg/mL
[10]
  MIC: 0.25 µg/mL
[11]
  MIC: 0.25 µg/mL
[12]
  MIC: 0.25 µg/mL
[13]
  MIC: 0.25 µg/mL
[14]
  MIC: 0.125 µg/mL
